As usually defined, the EC50 is the concentration that produces a half-maximal response.

The source of these data is paper PMC6136712, “Ex vivo drug sensitivity testing as a means for drug repurposing in esophageal adenocarcinoma” (PLoS ONE, 2018).

Counter-ions that a name gives are not always drawn. Like-named read-outs stand apart in the source and are kept apart here.

What all share (format): cell-based, human
Assay [1] deals with normal esophageal epithelium cell line EACN42. Briefly: FDA library drug sensitivity testing (CellTiter-Glo, 72 h), normal control cells. As to conditions: 72 h, EACN42 normal esophageal cells; for EC50: cell viability (ATP), max test concentration 10μM; for DSS: drug sensitivity score. Further details: key to DSS: modified drug sensitivity score (DSSmod) from dose-response curve fit. Put shortly:
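HPV E6-E7-immortalized normal human esophageal epithelial cells, 1000 per well, exposed 72 h at 37 °C to drugs in duplicate from 10μM top concentration across a 20,000-fold range. Viability by ATP bioluminescence; DMSO wells as negative control; curves scored with modified drug sensitivity score (DSSmod).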
A general note: ATP-based viability assays read luminescence as a measure of living cells.

Assay [2] deals with EAC42 cells. Briefly: FDA library drug sensitivity testing (CellTiter-Glo, 72 h). The source says: (§1) OE33, OE19 and SKGT2 human esophageal adenocarcinoma cell lines were obtained from the European Collection of Cell Culture ([…]). Flo1, EAC42 and EAC47 cells were established in the Capobianco Laboratory. EAC42 and EAC47 human esophageal adenocarcinoma cell lines are derived from patients undergoing surgery at the Miller School of Medicine, University of Miami. The Capobianco laboratory obtained written informed consent from all patients and approval from the Institutional Research Ethics Committee.
(§2) Drug sensitivity testing (DST) was performed as described previously. […] Individual drugs were dissolved in 100% DMSO and tested in duplicates starting at a maximal test concentration of 10μM then over a 20,000-fold concentration range to generate dose response curves. Wells with assay buffer containing DMSO served as negative controls. 1000 exponentially growing cells were seeded per well in 384-well micro-titer plates and incubated in the presence of compounds in a humidified environment at 37°C and 5% CO2. After 72 hours of treatment, cell viability was assessed by measuring ATP levels via bioluminescence (CellTiter-Glo, Promega) according to manufactures recommendations. Interpretation of curve parameters was performed according to the modified drug sensitivity scoring (DSSmod) function developed by Swords et al. […] Given in this way, the sDSSmod incorporated information on each drug’s potency, efficacy, effect range and therapeutic index, making it possible to prioritize compounds over multiple parameters using a single numerical metric. […] All calculations and scoring routines are implemented in MatLab and additional curve fitting and statistical analyses are performed in GraphPad prism.

Assay [3] concerns EAC47 cells. Described as above.
Text: as §1, §2

Assay [4] relates to OE19 cells. The description is as above. As to conditions: sDSSmod = DSSmod (patient cells) - DSSmod (normal cells).
Text: as §1, §2

The subject of assay [5] is OE33 cells. The description is as above.
Text: as §1, §2

Assay [6] deals with SK-GT2 cells. The description is as above.
Text: as §1, §2

Assay [7] has as its system Flo-1 cells. The assay is described as above.
Text: as §1
Drug sensitivity testing (DST) was performed as described previously. […] Individual drugs were dissolved in 100% DMSO and tested in duplicates starting at a maximal test concentration of 10μM then over a 20,000-fold concentration range to generate dose response curves. Wells with assay buffer containing DMSO served as negative controls. 1000 exponentially growing cells were seeded per well in 384-well micro-titer plates and incubated in the presence of compounds in a humidified environment at 37°C and 5% CO2. After 72 hours of treatment, cell viability was assessed by measuring ATP levels via bioluminescence (CellTiter-Glo, Promega) according to manufactures recommendations. Interpretation of curve parameters was performed according to the modified drug sensitivity scoring (DSSmod) function developed by Swords et al. As a final step, the selective DSSmod (sDSSmod) for each drug in each patient screen is calculated according to the formula sDSSmod = DSSmod (patient cells)—DSSmod (normal cells). Given in this way, the sDSSmod incorporated information on each drug’s potency, efficacy, effect range and therapeutic index, making it possible to prioritize compounds over multiple parameters using a single numerical metric. In addition, this methodology allows us to rank compounds by cancer-selective efficacy for each individual patient. […] All calculations and scoring routines are implemented in MatLab and additional curve fitting and statistical analyses are performed in GraphPad prism.

The subject of assay [8] is Flo-1 cells. Briefly: Epigenetic compound library screen (CellTiter-Glo, 72 h). As to conditions: Homo sapiens, Flo-1, 6μM, read-out: % cell killing /control. On the procedure: We tested a 163 compound epigenetic library that consists of inhibitors and activators of epigenetic modifying enzymes (writers, erasers and readers). All compounds were dissolved in 100% DMSO and tested in duplicate at a nominal test concentration of 6μM. Wells with assay buffer containing DMSO served as negative controls. 1000 exponentially growing cells were seeded per well in 384-well micro-titer plates and incubated in the presence of compounds in a humidified environment at 37°C and 5% CO2. After 72 hours of treatment, cell viability was assessed by measuring ATP levels via bioluminescence (CellTiter-Glo, Promega). […] Curve fitting and statistical analyses are performed in GraphPad prism.

Setting [9] is: EAC42, sDSSmod = DSSmod (patient cells) - DSSmod (normal cells).
Setting [10] is: EAC47, sDSSmod = DSSmod (patient cells) - DSSmod (normal cells).
The mark [11] stands for this setting: OE33, sDSSmod = DSSmod (patient cells) - DSSmod (normal cells).
Where [12] appears, read: SK-GT2, sDSSmod = DSSmod (patient cells) - DSSmod (normal cells).
Setting [13] is: Flo-1, sDSSmod = DSSmod (patient cells) - DSSmod (normal cells).

In assay [1] (Homo sapiens), `CO[C@H]1C[C@@H]2CC[C@@H](C)[C@@](O)(O2)C(=O)C(=O)N2CCCC[C@H]2C(=O)O[C@H]([C@H](C)C[C@@H]2CC[C@@H](OC(=O)C(C)(CO)CO)[C@H](OC)C2)CC(=O)[C@H](C)/C=C(\C)[C@@H](O)[C@@H](OC)C(=O)[C@H](C)C[C@H](C)/C=C/C=C/C=C/1C` [Temsirolimus] yielded a 50% effective concentration (EC50) of over 10000 nM. In assay [1], this compound displayed a DSS of 11.93. Moreover, the sDSSmod is listed as -5.1083 in assay [2] (setting [9]); -9.994 in assay [3] (setting [10]); -11.9329 in assay [4]; -11.9329 in assay [5] (setting [11]); -11.9329 in assay [6] (setting [12]); -11.93 in assay [7] (setting [13]).

In assay [1] (Homo sapiens), `Nc1nc(F)nc2c1ncn2[C@@H]1O[C@H](COP(=O)(O)O)[C@@H](O)[C@@H]1O` [Fludara] registered a half-maximal effective concentration (EC50) of 50 nM. Moreover, the DSS in assay [1] was 46.34. Besides, the sDSSmod in assay [2] (setting [9]) is -46.3431; in assay [3] (setting [10]), -46.3431; in assay [4] it was -23.9486; in assay [5] (setting [11]), -12.9868; in assay [6] (setting [12]), -12.9068; in assay [7] (setting [13]), -5.23.

In the case of `CC[C@@]1(O)C(=O)OCc2c1cc1n(c2=O)Cc2cc3c(CN(C)C)c(O)ccc3nc2-1` [Topotecan HCl], the 50% effective concentration (EC50) in assay [1] (Homo sapiens) was 60 nM. Moreover, the DSS in assay [1] stood at 43.21. For the same compound, the sDSSmod in assay [2] (setting [9]) is given as -9.367; in assay [3] (setting [10]) it was -11.6273; in assay [4] it was -36.6414; in assay [6] (setting [12]), -13.0332; in assay [7] (setting [13]), -20.26.

The compound `Cc1cn(-c2cc(NC(=O)c3ccc(C)c(Nc4nccc(-c5cccnc5)n4)c3)cc(C(F)(F)F)c2)cn1` [Nilotinib] came in with an EC50 in assay [1] (Homo sapiens) of over 10000 nM. The DSS in assay [1] is 0.43. For the same compound, the sDSSmod turned out to be 18.74 in assay [4], 32.09 in assay [5] (setting [11]), 27.22 in assay [6] (setting [12]) and 37.8 in assay [7] (setting [13]).

With `O=C(CCCCCN1C(=O)c2cccc3cccc(c23)C1=O)NO` [Scriptaid], the cytotoxicity at 6 µM in assay [8] stood at 32.5%.

With `CC[C@@]1(O)C(=O)OCc2c1cc1n(c2=O)Cc2cc3ccccc3nc2-1` [Camptothecin], the concentration giving a half-maximal response (EC50) in assay [1] (Homo sapiens) was 20 nM. In assay [1], this compound gave a DSS of 52.69. For the same compound, the sDSSmod is listed as -13.5945 in assay [2] (setting [9]); -15.9763 in assay [3] (setting [10]); -34.9341 in assay [4]; -11.3049 in assay [6] (setting [12]); -20.76 in assay [7] (setting [13]).

For the compound `O=C(CCCCCCC(=O)Nc1ccccc1)NO` [Vorinostat], the DSS in assay [1] is 5.09. In addition, the sDSSmod in assay [2] (setting [9]) turned out to be 7.485; in assay [3] (setting [10]), 5.288; in assay [4] it was 9.843; in assay [5] (setting [11]), 15.71; in assay [7] (setting [13]) it was 9.58.

As to `CC(C)C[C@H](NC(=O)[C@H](Cc1ccccc1)NC(=O)c1cnccn1)B(O)O` [Bortezomib], the concentration giving a half-maximal response (EC50) in assay [1] (Homo sapiens) came to 200 nM. Besides, the DSS in assay [1] stood at 35.58. Also, the sDSSmod in assay [2] (setting [9]) is listed as -21.0264; in assay [3] (setting [10]), -23.5292; in assay [4] it was -35.5757; in assay [5] (setting [11]), -35.5757; in assay [6] (setting [12]), -35.5649; in assay [7] (setting [13]) it was -35.57.

Take `CC(C)n1c(/C=C/C(O)CC(O)CC(=O)O)c(-c2ccc(F)cc2)c2ccccc21` (stereo not drawn) [Fluvastatin sodium]: the concentration giving a half-maximal response (EC50) in assay [1] (Homo sapiens) was determined as 1060 nM. The compound also showed a DSS in assay [1] of 17.36. The sDSSmod in assay [2] (setting [9]) is -14.3727; in assay [3] (setting [10]), -15.1417; in assay [4], -16.7184; in assay [5] (setting [11]) it was -10.5948; in assay [6] (setting [12]), -17.1525; in assay [7] (setting [13]), -9.71.

For the compound `Cc1[nH]c2ccccc2c1CCNCc1ccc(/C=C/C(=O)NO)cc1` [Panobinostat], the EC50 in assay [1] (Homo sapiens) turned out to be 90 nM. The compound further gave a DSS in assay [1] of 40.42. In addition, the sDSSmod in assay [2] (setting [9]) is 7.607; in assay [4], -40.4215; in assay [5] (setting [11]), -40.4215; in assay [6] (setting [12]) it was -40.4215; in assay [7] (setting [13]), -40.42.

In assay [1] (Homo sapiens), `O=C(/C=C/c1cccc(S(=O)(=O)Nc2ccccc2)c1)NO` [Belinostat] yielded a concentration for a half-maximal effect (EC50) of 1080 nM. Moreover, in assay [1], the DSS is reported as 19. Also, the sDSSmod in assay [2] (setting [9]) is given as 10.9; in assay [3] (setting [10]) it was 6.846; in assay [4] it was -19.002; in assay [5] (setting [11]), -19.002; in assay [6] (setting [12]) it was -19.002; in assay [7] (setting [13]), -19.

On to `CC(C)C[C@H](NC(=O)[C@H](CCc1ccccc1)NC(=O)CN1CCOCC1)C(=O)N[C@@H](Cc1ccccc1)C(=O)N[C@@H](CC(C)C)C(=O)[C@@]1(C)CO1` [Cartilzomib, Carfilzomib], for which the EC50 in assay [1] (Homo sapiens) stood at 80 nM. The same compound came in with a DSS in assay [1] of 44.43. For the same compound, the sDSSmod is -42.8127 in assay [4], -43.92 in assay [5] (setting [11]), -44.432 in assay [6] (setting [12]) and -44.35 in assay [7] (setting [13]).

In turn, Bleomycin sulfate yielded an EC50 in assay [1] of 370 nM. The DSS in assay [1] turned out to be 30.58. In addition, the sDSSmod in assay [2] was -29.1318; in assay [3], -29.4923; in assay [4] it was -18.9933; in assay [5], -15.1946; in assay [6] it was -29.9671; in assay [7], -18.12.

On to `Cc1nc(Nc2ncc(C(=O)Nc3c(C)cccc3Cl)s2)cc(N2CCN(CCO)CC2)n1` [Dasatinib], for which the response in assay [1] (Homo sapiens) was half-maximal at 80 nM (EC50). This compound gave a DSS in assay [1] of 12.81. Further, the sDSSmod is given as -9.752 in assay [2] (setting [9]); -10.2728 in assay [3] (setting [10]); -12.8072 in assay [4]; -12.8072 in assay [5] (setting [11]); -12.8072 in assay [6] (setting [12]); -12.8 in assay [7] (setting [13]).

In assay [1] (Homo sapiens), `CO[C@H]1C[C@@H]2CC[C@@H](C)[C@@](O)(O2)C(=O)C(=O)N2CCCC[C@H]2C(=O)O[C@H]([C@H](C)C[C@@H]2CC[C@@H](O)[C@H](OC)C2)CC(=O)[C@H](C)/C=C(\C)[C@@H](O)[C@@H](OC)C(=O)[C@H](C)C[C@H](C)/C=C/C=C/C=C/1C` [Rapamycin] yielded a half-maximal effective concentration (EC50) of 3000 nM. The compound further yielded a DSS in assay [1] of 11.01. Besides, the sDSSmod is on record as -6.15 in assay [2] (setting [9]); -8.931 in assay [3] (setting [10]); -11.012 in assay [4]; -11.012 in assay [5] (setting [11]); -11.012 in assay [6] (setting [12]); -10.72 in assay [7] (setting [13]).

Consider `[Na+].[Na+].[Na+].[O]=[V]([O-])([O-])[O-]` [Sodium orthovanadate], for which, in assay [1], the DSS turned out to be 0. Further, the sDSSmod amounted to 5.913 in assay [4], 23.66 in assay [6] (setting [12]) and 13.33 in assay [7] (setting [13]).
